Values quoted from earlier work as cited in US9907754B2 (VECTURA LIMITED, priority 2013, dated 2018).

How the values were obtained:
[1] = EFSA; no indications of inhalation toxicity or intolerability
[2] = henderson-hasselbalch (1908)

OC[C@@H](O)[C@@H](O)[C@H](O)[C@H](O)CO [Mannitol]
water pick up, % of mass (humidity >70% RH): 10% | moisture pick up (relative humidity as high as 70%): less than 1%

NCCS(=O)(=O)O [Taurine, 2-aminoethanesulfonic acid]
tolerable dose [1]: > 1000 mg/kg/day | pKa of the sulphur-hydryl group [2]: 1.49
